# Reference: ChEMBL document CHEMBL1158657, “Improved antitumor activity by modification of nogalamycin” (1979)
# What was measured:
# Assay type in all cases: functional
# L1210 [1] = experiment: Inhibition of RNA synthesis in mouse L1210 cells; settings: read-out: ID50 (the source's name)
# L1210 [2] = experiment: Inhibition of RNA synthesis in mouse L1210 cells at 10 nmole/ml
# B16 [3] = experiment: Antitumor activity against mouse B16 cells xenografted in mouse assessed as increase in life span at 16 mg/kg/day, ip after 9 days; settings: route intraperitoneal
# L1210 [4] = experiment: Inhibition of DNA synthesis in mouse L1210 cells; settings: read-out: ID50 (the source's name)
# P388 [5] = experiment: Antitumor activity against mouse P388 cells xenografted in mouse assessed as increase in life span at 12.5 mg/kg/day, ip after 9 days; settings: route intraperitoneal
# L1210 [6] = experiment: Cytotoxicity against mouse L1210 cells; settings: for IC50: Mus musculus
# P388 [7] = experiment: Antitumor activity against mouse P388 cells xenografted in mouse assessed as increase in life span at 70 mg/kg/day, ip after 9 days; settings: route intraperitoneal
# B16 [8] = experiment: Antitumor activity against mouse B16 cells xenografted in mouse assessed as increase in life span at 10 mg/kg/day, ip after 9 days; settings: route intraperitoneal
# P388 [9] = experiment: Antitumor activity against mouse P388 cells xenografted in mouse assessed as increase in life span at 25 mg/kg/day, ip after 9 days; settings: route intraperitoneal
# P388 [10] = experiment: Antitumor activity against mouse P388 cells xenografted in mouse assessed as increase in life span at 4 mg/kg/day, ip after 9 days; settings: route intraperitoneal
# P388 [11] = experiment: Antitumor activity against mouse P388 cells xenografted in mouse assessed as increase in life span at 100 mg/kg/day, ip after 9 days; settings: route intraperitoneal
# P388 [12] = experiment: Antitumor activity against mouse P388 cells xenografted in mouse assessed as increase in life span at 6.5 mg/kg/day, ip after 9 days; settings: route intraperitoneal
# B16 [13] = experiment: Antitumor activity against mouse B16 cells xenografted in mouse assessed as increase in life span at 12 mg/kg/day, ip after 9 days; settings: route intraperitoneal
# P388 [14] = experiment: Antitumor activity against mouse P388 cells xenografted in mouse assessed as increase in life span at 6.3 mg/kg/day, ip after 9 days; settings: route intraperitoneal
# P388 [15] = experiment: Antitumor activity against mouse P388 cells xenografted in mouse assessed as increase in life span at 5 mg/kg/day, ip after 9 days; settings: route intraperitoneal
# B16 [16] = experiment: Antitumor activity against mouse B16 cells xenografted in mouse assessed as increase in life span at 50 mg/kg/day, ip after 9 days; settings: route intraperitoneal
# L1210 [17] = experiment: Antitumor activity against mouse L1210 cells xenografted in mouse assessed as increase in life span at 50 mg/kg/day, ip after 9 days; settings: route intraperitoneal
# P388 [18] = experiment: Antitumor activity against mouse P388 cells xenografted in mouse assessed as increase in life span at 10 mg/kg/day, ip after 9 days; settings: route intraperitoneal
# L1210 [19] = experiment: Antitumor activity against mouse L1210 cells xenografted in mouse assessed as increase in life span at 2.5 mg/kg/day, ip after 9 days; settings: route intraperitoneal
# B16 [20] = experiment: Antitumor activity against mouse B16 cells xenografted in mouse assessed as increase in life span at 2 to 5 mg/kg/day, ip after 9 days; settings: route intraperitoneal
# [21] = L1210, read-out: ID50 (the source's name)
smiles,measurement,setting,value
CO[C@H]1C[C@](C)(O)Cc2cc3c(c(O)c21)C(=O)c1c(O)cc2c(c1C3=O)O[C@@H]1O[C@@]2(C)[C@H](O)[C@@H](N(C)C)[C@@H]1O,IC50,L1210 [1],8.3 µM
same,inhibition (INH),L1210 [2],91.2%
same,Activity,B16 [3],105%
same,IC50,L1210 [4],11.6 µM
same,Activity,P388 [5],76%
same,IC50,"L1210 [6]; L1210, read-out: ID50",0.41 µg/mL
COC(=O)c1c(C)ccc2c(O)c3c(cc12)C(=O)c1c2c(cc(O)c1C3=O)[C@@]1(C)O[C@@H](O2)[C@@H](O)[C@H](N(C)C)[C@H]1O [NOGALARENE],Activity,P388 [7],50%
same,ID95,L1210 [6],0.58 µM
same,IC50,L1210 [6]; [21],0.24 µM
COC(=O)[C@@H]1c2cc3c(c(O)c2[C@@H](OC)C[C@@]1(C)O)C(=O)c1c(O)cc2c(c1C3=O)O[C@@H]1O[C@@]2(C)[C@H](O)[C@@H](N(C)C)[C@@H]1O,Activity,B16 [8],35%
same,IC50,L1210 [1],7.8 µM
same,IC50,L1210 [4],7 µM
same,IC50,"L1210 [6]; L1210, read-out: ID50",0.13 µg/mL
same,Activity,P388 [9],98%
CC(C)O[C@H]1C[C@@](C)(O)Cc2cc3c(c(O)c21)C(=O)c1c(O)cc2c(c1C3=O)O[C@@H]1O[C@@]2(C)[C@H](O)[C@@H](N(C)C)[C@@H]1O,Activity,P388 [10],20%
CCCO[C@H]1C[C@](C)(O)[C@H](C(=O)OC)c2cc3c(c(O)c21)C(=O)c1c(O)cc2c(c1C3=O)O[C@@H]1O[C@@]2(C)[C@H](O)[C@@H](N(C)C)[C@@H]1O,IC50,"L1210 [6]; L1210, read-out: ID50",0.16 µg/mL
CN(C)[C@H]1[C@H](O)[C@@H]2Oc3c(cc(O)c4c3C(=O)c3cc5c(c(O)c3C4=O)CC[C@](C)(O)C5)[C@@](C)(O2)[C@@H]1O,Activity,P388 [11],21%
same,ID95,L1210 [6],1.76 µM
same,IC50,L1210 [6]; [21],0.94 µM
CCO[C@H]1C[C@@](C)(O)Cc2cc3c(c(O)c21)C(=O)c1c(O)cc2c(c1C3=O)O[C@@H]1O[C@@]2(C)[C@H](O)[C@@H](N(C)C)[C@@H]1O,IC50,L1210 [1],5.2 µM
same,Activity,P388 [12],63%
same,IC50,L1210 [4],10.6 µM
same,Activity,B16 [13],25%
same,IC50,"L1210 [6]; L1210, read-out: ID50",0.16 µg/mL
CCCO[C@H]1C[C@@](C)(O)Cc2cc3c(c(O)c21)C(=O)c1c(O)cc2c(c1C3=O)O[C@@H]1O[C@@]2(C)[C@H](O)[C@@H](N(C)C)[C@@H]1O,Activity,P388 [14],34%
same,IC50,"L1210 [6]; L1210, read-out: ID50",0.1 µg/mL
COC(=O)[C@@H]1c2cc3c(c(O)c2[C@@H](N=[N+]=[N-])C[C@]1(C)O)C(=O)c1c(O)cc2c(c1C3=O)O[C@@H]1O[C@@]2(C)[C@H](O)[C@@H](N(C)C)[C@@H]1O,Activity,P388 [15],33%
COC(=O)[C@@H]1c2cc3c(c(O)c2[C@@H](OC)C[C@]1(C)O)C(=O)c1c(O)cc2c(c1C3=O)O[C@@H]1O[C@@]2(C)[C@H](O)[C@@H](N(C)C)[C@@H]1O,IC50,L1210 [1],0.5 µM
same,Activity,B16 [16],84%
same,IC50,L1210 [4],3.8 µM
same,IC50,"L1210 [6]; L1210, read-out: ID50",0.27 µg/mL
same,Activity,L1210 [17],12%
same,Activity,P388 [9],60%
COC(=O)[C@@H]1c2cc3c(c(O)c2[C@@H](OC(C)=O)C[C@]1(C)O)C(=O)c1c(O)cc2c(c1C3=O)O[C@@H]1O[C@@]2(C)[C@H](O)[C@@H](N(C)C)[C@@H]1O,Activity,P388 [18],87%
CCN[C@H]1C[C@](C)(O)[C@H](C(=O)OC)c2cc3c(c(O)c21)C(=O)c1c(O)cc2c(c1C3=O)O[C@@H]1O[C@@]2(C)[C@H](O)[C@@H](N(C)C)[C@@H]1O,Activity,P388 [9],55%
CO[C@H]1[C@H](O[C@H]2C[C@](C)(O)Cc3cc4c(c(O)c32)C(=O)c2c(O)cc3c(c2C4=O)O[C@@H]2O[C@@]3(C)[C@H](O)[C@@H](N(C)C)[C@@H]2O)O[C@@H](C)[C@H](OC)[C@@]1(C)OC [DISNOGAMYCIN],Activity,P388 [15],93%
same,IC50,L1210 [1],0.5 µM
same,IC50,L1210 [4],3 µM
same,Activity,L1210 [19],27%
same,ID95,L1210 [6],0.27 µg/mL
same,IC50,"L1210 [6]; L1210, read-out: ID50",0.18 µg/mL
same,Activity,B16 [20],61%
